Literature values in patent US8895061B2, “Compositions comprising carisoprodol and methods of use thereof” (Meda Pharmaceuticals Inc., priority 2007, dated 2014).

Key:
[1] = in vivo
[2] = for influence of polymorphic debrisoquine hydroxylation on elimination: poor metabolizers of debrisoquine, single oral doses

SMILES | onset of action [1] | influence of polymorphic debrisoquine hydroxylation on elimination [2] | mean serum clearance of carisoprodol ([2]; poor metabolizers of mephenyloin compared with extensive metabolizers, single oral dose 700 mg carisoprodol) | mean serum clearance of meprobamate ([2]; poor metabolizers of mephenyloin compared with extensive metabolizers, single oral dose 400 mg meprobamate)
CCCC(C)(COC(N)=O)COC(=O)NC(C)C (centres unmarked) [carisoprodol, N-isopropyl-2-methyl-2-propyl-1,3-propanediol dicarbamate] | rapid | did not influence the elimination | four times lower | –
CCCC(C)(COC(N)=O)COC(N)=O [meprobamate] | – | did not influence the elimination | – | did not differ between the two groups
